Measured values reported in US20030207863A1, “Preventives and remedies for central nervous system diseases” (priority 2000, published 2003).

Tested on: IMR32 cells
Experiment: Amyloid β protein in culture supernatant of IMR32 cells after addition of urotensin II, by enzyme immunoassay
Type: cell-based
Conditions: cultured 24 hours
Method: Test compound 1 was added to IMR32 cells at various concentrations (μM) 10 minutes before addition of 10 nM of urotensin II. Then, urotensin II was added in the presence or absence of test compound 1, the mixture was cultured for 24 hours, and the amount of amyloid β protein in the supernatant of the culture was determined by enzyme immunoassay (Biochemistry, Vol.34, No.32, pp. 10272-10278, (1995)). Test compound 2 as described hereinafter (the compound of Synthesis Example 5) was used and added at a concentration of 1 nM, and the amount of amyloid β protein was determined in the same manner as that of Experimental Example 1. Namely, IMR32 cells were used and test compound 2 was added at a concentration of 1 nM 10 minutes before addition of 10 nM of urotensin II. After addition of urotensin II, the mixture was cultured for 24 hours and the amount of amyloid β protein in the supernatant of the culture was determined by enzyme immunoassay.

Row | Compound | suppression of increase in the selective secretion of amyloid β40 by urotensin II (test compound at various concentrations (μM) added 10 minutes before 10 nM urotensin II, FIG. 1) | suppression of increase of amyloid β40 by urotensin II (test compound at 1 nM added 10 minutes before 10 nM urotensin II, FIG. 2)
1 | Cc1ccc2nc3c(c(N)c2c1)CCN3Cc1ccccc1 [test compound 1] | concentration-dependently suppressed | –
2 | Cl.NS(=O)(=O)c1ccc(CCN(Cc2cccc(-c3cccc(C(=O)NCCN4CCCC4)c3)c2)C(=O)CCCc2ccccc2)cc1 [test compound 2, 3′-{({2-[4-(Aminosulfonyl)phenyl]ethyl}[4-phenylbutanoyl]amino)methyl}-N-[2-(1-pyrrolidinyl)ethyl][1,1′-biphenyl]-3-carboxamide Hydrochloride] | – | completely suppressed
